The text below walks through data of US20090005403A1, “Alkinyl-Oxypyrimidines Used in the Form of Pesticides” (priority 2005, published 2009).

Data set [1] can be described thus: logP determination by HPLC on reversed-phase column (EEC Directive 79/831 annex V.A8). The data set is classed as physicochemical. Here is the method: Calibration was carried out using unbranched alkan-2-ones (having 3 to 16 carbon atoms) with known logP values (determination of logP values by the retention times using linear interpolation between two successive alkanone).

In data set [2] the test system is green peach aphid (Myzus persicae). Briefly: Myzus test (MYZUPE spray treatment). The class given is in vivo. The conditions noted are these: 500 g/ha, spray treatment of Chinese cabbage disks, 100% = all aphids killed. Here is the method: Myzus Test (MYZUPE Spray Treatment)
To produce a suitable preparation of active compound, 1 part by weight of active compound is mixed with the stated amounts of solvents and emulsifier, and the concentrate is diluted with emulsifier-containing water to the desired concentration.
Disks of Chinese cabbage (Brassica pekinensis) which are infested by all stages of green peach aphid (Myzus persicae) are sprayed with a preparation of active compound of the desired concentration.
(§1) After the desired period of time, the effect in % is determined. 100% means that all aphids have been killed; 0% means that none of the aphids have been killed.

The test system of a further data set is Myzus persicae. Briefly: Myzus persicae (MYZUPE U). The class given is in vivo. Conditions: 30 ppm, ingestion, 100% = all aphids killed. Here is the method:
Myzus Persicae (MYZUPE U)
To produce a suitable preparation of active compound, the active compound is mixed with the stated amounts of solvent, and the concentrate is diluted with stained water to the desired concentration.
The Myzus persicae are provided with a preparation of active compound of the desired concentration for ingestion.
as §1

Data set [3] has as its system cotton aphid (Aphis gossypii). Nature of the data set: Aphis gossypii test (APHIGO). The conditions noted are these: 100 ppm, cotton leaves dipped, 100% = all aphids killed. The data set is classed as in vivo. Here is the method: Aphis Gossypii Test (APHIGO)
To produce a suitable preparation of active compound, 1 part by weight of active compound is mixed with the stated amounts of solvent and emulsifier, and the concentrate is diluted with emulsifier-containing water to the desired concentration.
Cotton leaves (Gossypium hirsutum) which are heavily infested by the cotton aphid (Aphis gossypii) are treated by being dipped into the preparation of active compound of the desired concentration.
After the desired period of time, the kill in % is determined. 100% means that all aphids have been killed; 0% means that none of the aphids have been killed.

The mark [4] stands for this setting: reversed-phase HPLC column, in the preparation example, pH range not marked.
Where [5] appears, read: reversed-phase C18 HPLC column, HPLC, reversed-phase C 18, 43° C., acidic range (pH 2.3), marked a).

A word on the chromatographic logP: it is a lipophilicity value derived from retention on a column. A low value points to lower lipophilicity. With `CC#CCOc1cc(-c2ccsc2)ncn1` [Example 1, 4-(2-butyn-1-yl-oxy)-6-(3-thienyl)-pyrimidine], in data set [1] (setting [4]), the chromatographic logP is 2.84.

Take `CC#CCOc1cc(-n2cc(Cl)cn2)ncn1` [Example 2, 4-butynyloxy-6-(4-chloropyrazol-1-yl)pyrimidine]: the chromatographic logP in data set [1] (setting [4]) was determined as 3.65.

Compound `CC#CCOc1cc(-c2ccccn2)ncn1` [Example 3] displayed a chromatographic logP in data set [1] (setting [5]) of 2.31. Besides, the “effect in % (% 5 d)” value in data set [2] came to 80%.

`CC#CCOc1cc(-c2cccs2)ncn1` [Example 6] yielded a chromatographic logP in data set [1] (setting [5]) of 2.95. The “effect in % (% 5 d)” value in data set [2] is on record as 90%.

As to `CC#CCOc1cc(-n2cccn2)ncn1` [Example 8], the chromatographic logP in data set [1] (setting [5]) is 2.55. For the same compound, in data set [2], the “effect in % (% 5 d)” value is 90%.

Consider `CC#CCOc1cc(-n2ccnc2)ncn1` [Example 12], for which the “effect in % (% 6-7 d)” value in the data set with Myzus persicae amounted to 100%. This compound also had a chromatographic logP in data set [1] (setting [5]) of 1.

Take `CC#CCOc1cc(-c2cscc2C)ncn1` [Example 25]: in data set [3], the “kill in % (% 6 d)” value was found to be 80%. This compound registered a chromatographic logP in data set [1] (setting [5]) of 3.26. In addition, the “effect in % (% 5 d)” value in data set [2] was 80%.

As for `Clc1cc(-c2ccsc2)ncn1` [II-1, 4-chloro-6-(3-thienyl)pyrimidine], in data set [1] (setting [4]), the chromatographic logP came to 2.31.
